Experimental data as given in patent publication US20060024691A1, “Novel pathways in the etiology of cancer” (Buck Institute for Age Research, priority 2004, published 2006).
Read-outs that look alike come from different tables or passages of the source.

Assays:
Assay type in all cases: cell-based, human
[1] = test system: ERα Ser-118 (67 kD ERα and 52 kD ERα variant); details: for Ser-118 phosphorylation of ER induced by treatment: MCF-7/T47D cells, charcoal-stripped media, 30 min, menadione 100 μM, estradiol 10 nM, other quinones at equitoxic doses
Method: (§1) Human breast cancer cell lines MCF7 and T47D were obtained from the American Type Culture Collection (ATCC). MCF7 cells were maintained in Dulbecco's Modification of Eagle's Medium (Cellgro) supplemented with 10% fetal bovine serum (Cellgro), 1% penicillin/streptomycin (Cellgro) and 10 μg/ml insulin (Sigma). T47D cells were maintained in RPMI (Cellgro) supplemented with 10% fetal bovine serum, 1% penicillin/streptomycin and 10 μg/ml insulin. Treatment conditions for both cell lines involved plating ˜1×10^6 cells in normal media onto 10 cm dishes, attachment and growth for 24 hours followed by a change to estrogen-free culture conditions (phenol red-free DME H-16 supplemented with 10% charcoal stripped serum, 1% penicillin/streptomycin and 10 μg/ml insulin) for an additional 24 hours. Cells were then treated as indicated for 30 minutes before extract preparation. Indicated conditions involved 30 minute pretreatments.
(§2) Following aspiration of the media and one ice cold PBS wash, cells growing on 10 cm dishes were harvested using a cell scraper and 0.7 ml of ice cold cell lyses buffer ([…], 1.5 mM MgCl2, […] KCl, 1 mM DTT, […] NaFl, 5% glycerol, 0.45% NP40 (Igepal, Sigma) and mincomplete protease inhibitors (Roche)). […] For preparation of high-salt nuclear extracts (nucleoplasm), isolated nuclei were resuspended for 20 minutes in ice cold extraction buffer (0.4 M NaCl, 25 mM Tris pH 7.5, 1 mM DTT, 20% glycerol, 10 mM NaFl and min-complete protease inhibitors (Roche)) followed by a 4° C. centrifugation at 16,000×g for 15 minutes.
(§3) Equal amounts of protein from the various extracts were mixed with 2× SDS sample buffer (125 mM Tris pH6.8, 20% glycerol, 2% SDS, 0.28 M 2-mercaptoethanol and0.5% Bromphenol Blue), heated for 5 minutes at 90° C. and electrophoresed on NuPAGE 4-12% Bis-Tris gels (Invitrogen) using NuPAGE MOPS SDS running buffer (Invitrogen) and full range Rainbow recombinant protein molecular weight markers (Amersham Pharmacia). […] Membranes were then blocked for 30 minutes in blocking buffer (150 mM NaCl, 20 mM Tris pH 7.5, 0.3% Tween-20 and 4% Nonfat dry milk powerby weight).

[2] = test system: ERα Ser-167 (67 kD ERα and 52 kD ERα variant); details: MCF7 nuclear extracts, 30 min
Method: as §1, §2, §3

ERK1/ERK2 = test: MAPK activation: ERK1/ERK2 phosphorylation, Western blot; details: MCF7 cells, 30 minutes
Method: as §1
For preparation of high-salt nuclear extracts (nucleoplasm), isolated nuclei were resuspended for 20 minutes in ice cold extraction buffer (0.4 M NaCl, 25 mM Tris pH 7.5, 1 mM DTT, 20% glycerol, 10 mM NaFl and min-complete protease inhibitors (Roche)) followed by a 4° C. centrifugation at 16,000×g for 15 minutes.
Membranes were then blocked for 30 minutes in blocking buffer (150 mM NaCl, 20 mM Tris pH 7.5, 0.3% Tween-20 and 4% Nonfat dry milk powerby weight).

NF-κB p50 = test: Nuclear translocation of NF-κB p50 in MCF-7 cultures; details: 10 μM, 30 min

## CC1=CC(=O)c2ccccc2C1=O [menadione, 2-methyl-1,4-naphthoquinone]
[1]
  Ser-118 phosphorylation of ER induced by treatment: induced Ser-118 phosphorylation
[1]; listed as K3
  Ser-118 phosphorylation of ER induced by treatment: contained both 67 kD and 52 kD p-Ser-118 ERα
[1]; menadione exposures 4-6 hr
  ER isoform activation on longer exposure: further enhanced activation of the ˜52 kDa delta7 ER isoform while diminishing that of 67 kDa ER
[2]
  Ser-167 phosphorylation of ERα induced by treatment: Ser-167 phosphorylation only on the 52 kD ERα nuclear variant
ERK1/ERK2
  ERK1/ERK2 phosphorylation induced by treatment: high level of ERK1/ERK2 phosphorylation
NF-κB p50
  increase in nuclear translocation of NF-κB p50 vs control treated cells: > 3 fold
